Measured values from US10538564B2, “Peptides having osteoblast growth-promoting activity and use thereof” (PHARMA FOODS INTERNATIONAL CO., LTD., priority 2014, dated 2020).
No end group written: not given here.

How the values were obtained:
[1] = system: Crlj:W1 male rats at four weeks old; assay: Bone formation in growth cartilage and secondary cancellous bone, 21-day oral administration; type: in vivo, rat; details: No. 1 oral 100 mg/kg·day, hGH 500 μg/kg·day subcutaneous; 21 days; FIG. 21
Method: One of the synthetic peptides (No. 1) or water for injection (control) was administered to Crlj:W1 male rats at four weeks old by oral gavage using a gastric tube once a day for 21 days (n=3 in each group). The dose of the synthetic peptide was 100 mg/kg·day. As a positive control, human growth hormone (hGH) (Norditropin, Standard Commodity Classification No. of Japan: 872412) was subcutaneously administered at 500 μg/kg·day once a day for 21 days. As fluorescent labels for the site of bone formation, tetracycline (20 mg/kg) was subcutaneously administered on day 18 after the administration of the peptide or control, and then calcein (10 mg/kg) was subcutaneously administered on day 20 after the administration of the peptide or control. After the administration of the test sample on day 21, the rats were kept under fasting conditions. Twenty-four hours later, the rats were euthanized by bloodletting under anesthesia, and the tibiae were harvested (see FIG. 20). Non-decalcified specimens of the proximal tibiae were prepared and photographed under a fluorescent microscope (BX-53, OLYMPUS). The bone morphology was measured using a morphometry system (Histometry RT digitizer, System Supply Co., Ltd.) and an analysis software (CSS-840 cancellous bone morphometry version, System Supply Co., Ltd.). The longitudinal growth rate (Lo.G.R.) in the epiphyseal cartilage, which is the increase in the height per day, was determined by measuring the distance between the tetracycline label and the calcein label, and dividing the distance by the administration interval between the fluorescent labels (two days).

[2] = system: Crlj:W1 male rats at four weeks old; assay: Bone formation in growth cartilage and primary cancellous bone, 7-day oral administration; type: in vivo, rat; details: No. 1 oral 100 mg/kg-day, hGH 500 μg/kg-day subcutaneous, seven days
Method: One of the synthetic peptides (No. 1) or water for injection (control) was administered to Crlj:W1 male rats at four weeks old by oral gavage using a gastric tube once a day for seven days (n=3 in each group). The dose of the synthetic peptide (No. 1) was 100 mg/kg-day. As a positive control, human growth hormone (hGH) (Norditropin, Standard Commodity Classification No. of Japan: 872412) was subcutaneously administered at 500 μg/kg-day once a day for seven days. As fluorescent labels for the site of bone formation, tetracycline (20 mg/kg) was subcutaneously administered on day 4 after the administration of the peptide or control, and then calcein (10 mg/kg) was subcutaneously administered on day 6 after the administration of the peptide or control. After the administration of the test sample on day 7, the rats were kept under fasting conditions. Twenty-four hours later, the blood was collected. The rats were then euthanized by bloodletting under anesthesia, and the tibiae were harvested (see FIG. 16). Non-decalcified specimens of the proximal tibiae were prepared and photographed under a fluorescent microscope (BX-53, OLYMPUS). The bone morphology was measured using a morphometry system (Histometry RT digitizer, System Supply Co., Ltd.) and an analysis software (CSS-840 cancellous bone morphometry version, System Supply Co., Ltd.). The longitudinal growth rate (Lo.G.R.) in the growth cartilage, which is the increase in the height per day, was determined by measuring the distance between the tetracycline label and the calcein label, and dividing the distance by the administration interval between the fluorescent labels (two days).
The increase in the level of IGF-1, which is related to growth of the bones and muscles in a growth phase, may contribute to the bone growth-promoting effect.

[3] = system: Crlj:W1 male rats at four weeks old; assay: Mineral apposition rate in secondary cancellous bone, 7-day oral administration; type: in vivo, rat; details: No. 1 oral 1, 10 or 100 mg/kg-day, hGH 500 μg/kg·day subcutaneous; seven days; FIG. 26
Method: One of the synthetic peptides (No. 1) or water for injection (control) was administered to Crlj:W1 male rats at four weeks old by oral gavage using a gastric tube once a day for seven days (n=10 in each group). The dose of the synthetic peptide was 1, 10 or 100 mg/kg-day. As a positive control, human growth hormone (hGH) (Norditropin, Standard Commodity Classification No. of Japan: 872412) was subcutaneously administered at 500 μg/kg·day once a day for seven days. As fluorescent labels for the site of bone formation, tetracycline (20 mg/kg) was subcutaneously administered on day 4 after the administration of the peptide or control, and then calcein (10 mg/kg) was subcutaneously administered on day 6 after the administration of the peptide or control. After the administration of the test sample on day 7, the rats were kept under fasting conditions. Twenty-four hours later, the rats were euthanized by bloodletting under anesthesia, and the tibiae were harvested. Non-decalcified specimens of the proximal tibiae were prepared and photographed under a fluorescent microscope (BX-53, OLYMPUS). The bone morphology was measured using a morphometry system (Histometry RT digitizer, System Supply Co., Ltd.) and an analysis software (CSS-840 cancellous bone morphometry version, System Supply Co., Ltd.). The mineral apposition rate (MAR), per day, in the secondary cancellous bone was determined by measuring the distance between the tetracycline label and the calcein label in the secondary cancellous bone, and dividing the distance by the administration interval between the fluorescent labels (two days). […] The increase in the mineral apposition rate in the secondary cancellous bone in the No. 1 administration group would have resulted from the increase in the number of osteoblasts.

[4] = system: mature female rats (eight months old); assay: Bone formation-promoting effect in mature rats; type: in vivo, rat; details: No. 1 oral 1, 10 or 100 mg/kg·day, alendronate 300 μg/kg subcutaneous, 20 weeks, vs control group
Method: Synthetic peptide No. 1 was administered to mature female rats (eight months old, ten rats in each group) by oral gavage using a gastric tube once a day for 20 weeks. The dose of the synthetic peptide was 1, 10 or 100 mg/kg·day.

[5] = system: mouse osteoblast-like cell line MC3T3-E1 Subclone-4; assay: Osteoblast growth-promoting activity (cell counting method); type: cell-based; details: synthetic peptides at 2.5, 5 or 10 μg/mL; 72 hours; relative to PBS (−) group taken as 100; FIGS. 9 to 12
Method: A mouse osteoblast-like cell line MC3T3-E1 Subclone-4 (ATCC No. CRL-2593) was cultured in α-MEM medium supplemented with 10% FBS at 5% CO2 and 95% air at 37° C. until confluent. The cells were collected by trypsinization. The collected cells were suspended at 1×10^4 cells/mL in fresh α-MEM medium. One mL of the cell suspension was seeded in each well of a 24-well plate, and precultured at 5% CO2 and 95% air at 37° C. On the next day, the medium was replaced with medium prepared by well mixing 50 μL of a sample or PBS (−) with 950 μL of fresh α-MEM medium supplemented with CaCl2 to a Ca concentration of 500 μg/mL. The cells were further cultured for 72 hours. The growth activity of osteoblasts was measured by the cell counting method. The activity of the sample for promoting the growth of osteoblasts was expressed in terms of the relative value, with the growth rate in the PBS (−) group taken as 100. Osteoblast growth-promoting activity was determined for the synthetic peptides in the same manner as in Example 1. The synthetic peptides were added at 2.5, 5 or 10 μg/mL per well. As a control, PBS (−) was added. The osteoblast growth-promoting activity was expressed in terms of the relative value, with the growth rate in the PBS (−) group taken as 100.

[6] = system: mouse-derived cell line ATDC5; assay: Hyaluronic acid production-promoting activity (ELISA of culture supernatant); type: cell-based; details: 10 nmol/mL; supernatant after 48 hours of culture; FIG. 15
Method: This study was performed using the mouse-derived cell line ATDC5 as used in Example 4. ATDC5 cells in the logarithmic growth phase were seeded at 2×10^4 cells/mL per well in a 24-well plate containing DMEM/F-12 (1:1) medium supplemented with 5% FCS (fetal calf serum), 10 μg/mL transferrin and 3×10^−8 M sodium selenite. The cells were precultured at 5% CO2 and 95% air at 37° C. On the next day, the medium in each well was removed, and medium containing the synthetic peptide (No. 1 or No. 6) at 10 nmol/mL was added. The cells were cultured for […]. As a control, medium without a synthetic peptide was added. After 48 hours of culture, the culture supernatants were collected, and their hyaluronic acid concentrations were measured using QnE Hyaluronic Acid ELISA Assay (Biotech Trading Partners). The concentrations of hyaluronic acid in the culture supernatants of the synthetic peptide addition group were calculated by subtracting the absorbance of the background from the absorbance of the supernatants, and fitting the resulting values to the reference curve prepared using the standard.

[7] = system: mouse-derived chondrogenic cell line ATDC5; assay: Chondrocyte growth-promoting activity (Cell Counting Kit-8); type: cell-based; details: 10 nmol/mL; 72 hours; relative to control taken as 100%; FIG. 14
Method: This study was performed using mouse-derived chondrogenic cell line ATDC5 (RIKEN BANK, RBC0565). ATDC5 cells in the logarithmic growth phase were suspended at 3×10^4 cells/mL in Eagle MEM medium supplemented with 5% FCS (fetal calf serum), and 100 μL of the cell suspension was seeded in each well of a 96-well plate and precultured at 5% CO2 and 95% air at 37° C. On the next day, the medium in each well was removed, and medium containing the synthetic peptide (No. 1 or No. 6) at 10 nmol/mL was added. The cells were cultured for 72 hours. As a control, medium without a synthetic peptide was added. The reaction solution ([…]) of Cell Counting Kit-8 (Dojindo Laboratories) was added to each well. The plate was incubated for 3 hours, and the absorbance at 450 nm was measured with a microplate reader. The activity of the synthetic peptides for promoting the growth of chondrocytes was expressed in terms of the relative value, with the absorbance (growth rate) in the control group taken as 100%.

## hGH: human growth hormone (hGH) (Norditropin), positive control, subcutaneously administered [reference compound]
[1]
  longitudinal growth rate (Lo.G.R.) in the epiphyseal cartilage, vs control group: significant promotion of bone growth as compared with the control group
[2]; ELISA, FIG. 19
  serum level of insulin-like growth factor (IGF-1): higher than that in the control group
[2]; FIG. 17
  longitudinal growth rate (Lo.G.R.) in the growth cartilage, vs control group: significant promotion of bone growth as compared with the control group
[3]
  mineral apposition rate (MAR) in the secondary cancellous bone, vs control group: significant increase in the mineral apposition rate

## NCCCC(O)(P(=O)(O)O)P(=O)(O)O [alendronate, alendronate sodium hydrate, reference compound]
[4]
  cancellous bone volume in the proximal tibial metaphysis: significantly increased

## DESSPYE [No. 4]
[5]
  osteoblast growth-promoting activity: promoted the growth of osteoblasts in a concentration-dependent manner

## EDESSPYE [No. 5]
[5]
  osteoblast growth-promoting activity: promoted the growth of osteoblasts in a concentration-dependent manner

## VNPESEEEDESSPYE [No. 6]
[6]
  hyaluronic acid production-promoting activity (hyaluronic acid concentration in culture supernatant): showed hyaluronic acid production-promoting effect
[5]
  osteoblast growth-promoting activity: promoted the growth of osteoblasts in a concentration-dependent manner
[7]
  chondrocyte growth-promoting activity: showed chondrocyte growth-promoting effect

## Pro-Glu-Ser-Glu-Glu (PESEE) [No. 3]
[5]
  osteoblast growth-promoting activity: promoted the growth of osteoblasts in a concentration-dependent manner

## VNPESEE [No. 2]
[5]
  osteoblast growth-promoting activity: promoted the growth of osteoblasts in a concentration-dependent manner
